{
  "source": "patent US20240409534A1",
  "about": "“CRYSTAL FORM OF METHYLPYRAZOLE-SUBSTITUTED PYRIDOIMIDAZOLE COMPOUND AND PREPARATION METHOD THEREFOR” (priority 2021, published 2024)",
  "key": {"[1]": {"experiment": "Stability test (high temperature, high humidity, light, accelerated, long-term)", "assay_type": "physicochemical", "source_text": "For tests under high temperature, high humidity and light conditions, samples were put into an open clean weighing bottle, spread into a thin layer of 5 mm or less, and 3 samples (1.1 g/sample) were weighed in parallel at each condition time point. The prepared samples were placed under each condition, and sampled for analysis at each time point.\nFor accelerated stability and long-term stability tests, samples were packed into a double-layer pharmaceutical low-density polyethylene bag. Each layer of the pharmaceutical low-density polyethylene bag was sealed with buckles, and then the double-layer low-density polyethylene bag was heat-sealed in an aluminum foil bag. 6 samples (1.1 g/sample) were weighed in parallel at each condition time point. The prepared samples were placed under each condition, and sampled for analysis at each time point."}, "[2]": {"test_system": "NCI-H1581 cells with high expression of FGFR1", "experiment": "Cell proliferation inhibition, CellTiter-Glo, NCI-H1581", "assay_type": "cell-based", "settings": "Homo sapiens, 72 h, NCI-H1581, cultured for 3 days", "source_text": "(§1) The compounds of the present disclosure can target and inhibit FGFR and VEGFR pathways, and inhibit tumor cell growth by inhibiting VEGF/VEGFR and FGF/FGFR signaling pathways. In this experiment, human non-small cell lung cancer cells NCI-H1581 with high expression of FGFR1, gastric cancer cells SNU-16 with high expression of FGFR2, and human bladder cancer cells RT112/84 with high expression of FGFR3 were selected. In this experiment, the inhibitory effect of compounds on cell proliferation was investigated by detecting the effect of the compounds of the present disclosure on the cell viability in vitro in the tumor cell lines NCI-H1581, SNU-16 and RT-112/84.\n(§2) Regular passage, and cells in logarithmic growth phase were taken for plating.\n(§3) • (1) Cells were stained with trypan blue and viable cells were counted. • (2) The cell concentration was adjusted to an appropriate concentration.\n(§4) • (3) 90 μL of cell suspension per well was added to a culture plate, and cell-free culture solution was added to the blank control well. • (4) The plate was cultured overnight in a 37° C., 5% CO2 incubator with 100% relative humidity.\n(§5) • (1) Preparation of 10× compound working solution: 78 μL of cell culture medium was added to a V-bottom 96-well plate, and 2 μL of compound was pipetted from a 400× compound storage plate and added to the cell culture medium of the 96-well plate. […]"}, "[3]": {"test_system": "bladder cancer cells RT112/84 with high expression of FGFR3", "experiment": "Cell proliferation inhibition, CellTiter-Glo, RT-112/84", "assay_type": "cell-based", "settings": "Homo sapiens, RT112/84, 72 h, RT-112/84, cultured for 3 days", "source_text": "as §1, §2, §3, §4, §5"}, "[4]": {"settings": "Accelerated stability test (40° C./relative humidity: 75%), Day 0"}, "[5]": {"settings": "Accelerated stability test (40° C./relative humidity: 75%), Month 1"}, "[6]": {"settings": "Accelerated stability test (40° C./relative humidity: 75%), Month 2"}, "[7]": {"settings": "Accelerated stability test (40° C./relative humidity: 75%), Month 3"}, "[8]": {"settings": "Accelerated stability test (40° C./relative humidity: 75%), Month 6"}, "[9]": {"settings": "High humidity (25° C./relative humidity: 92.5%, open), Day 5"}, "[10]": {"settings": "High humidity (25° C./relative humidity: 92.5%, open), Day 10"}, "[11]": {"settings": "High humidity (25° C./relative humidity: 92.5%, open), Day 30"}, "[12]": {"settings": "High temperature (60° C., open), Day 5"}, "[13]": {"settings": "High temperature (60° C., open), Day 10"}, "[14]": {"settings": "High temperature (60° C., open), Day 30"}, "[15]": {"settings": "Light (Total illumination: 1.2 × 10^6 Lux · hr/NUV: 200 w · hr/m^2, open), Day 5"}, "[16]": {"settings": "Light (Total illumination: 1.2 × 10^6 Lux · hr/NUV: 200 w · hr/m^2, open), Day 10"}, "[17]": {"settings": "Long-term stability test (25° C./relative humidity: 60%), Day 0"}, "[18]": {"settings": "Long-term stability test (25° C./relative humidity: 60%), Month 3"}, "[19]": {"settings": "Long-term stability test (25° C./relative humidity: 60%), Month 6"}, "[20]": {"settings": "Long-term stability test (25° C./relative humidity: 60%), Month 9"}},
  "data": [
    {"compound": "CS(=O)(=O)O.Cn1cc(-c2ccn3c(-c4cc(NS(C)(=O)=O)nc(-c5ccc(F)cc5F)c4)cnc3c2)cn1", "values": [
      {"measurement": "Content", "setting": "[1]; [4]", "value": 97.9, "unit": "%"},
      {"measurement": "Crystal form (XRPD)", "setting": "[1]; [4]", "value": "Crystal form A"},
      {"measurement": "Total impurities", "setting": "[1]; [4]", "value": 1.2, "unit": "%"},
      {"measurement": "Content", "setting": "[1]; [5]", "value": 98.0, "unit": "%"},
      {"measurement": "Crystal form (XRPD)", "setting": "[1]; [5]", "value": "Crystal form A"},
      {"measurement": "Total impurities", "setting": "[1]; [5]", "value": 1.3, "unit": "%"},
      {"measurement": "Content", "setting": "[1]; [6]", "value": 97.6, "unit": "%"},
      {"measurement": "Crystal form (XRPD)", "setting": "[1]; [6]", "value": "Crystal form A"},
      {"measurement": "Total impurities", "setting": "[1]; [6]", "value": 1.2, "unit": "%"},
      {"measurement": "Content", "setting": "[1]; [7]", "value": 98.0, "unit": "%"},
      {"measurement": "Crystal form (XRPD)", "setting": "[1]; [7]", "value": "Crystal form A"},
      {"measurement": "Total impurities", "setting": "[1]; [7]", "value": 1.2, "unit": "%"},
      {"measurement": "Content", "setting": "[1]; [8]", "value": 98.5, "unit": "%"},
      {"measurement": "Crystal form (XRPD)", "setting": "[1]; [8]", "value": "Crystal form A"},
      {"measurement": "Total impurities", "setting": "[1]; [8]", "value": 1.2, "unit": "%"},
      {"measurement": "Content", "setting": "[1]; Day 0", "value": 97.9, "unit": "%"},
      {"measurement": "Crystal form (XRPD)", "setting": "[1]; Day 0", "value": "Crystal form A"},
      {"measurement": "Total impurities", "setting": "[1]; Day 0", "value": 1.2, "unit": "%"},
      {"measurement": "Content", "setting": "[1]; [9]", "value": 96.8, "unit": "%"},
      {"measurement": "Crystal form (XRPD)", "setting": "[1]; [9]", "value": "Crystal form A"},
      {"measurement": "Total impurities", "setting": "[1]; [9]", "value": 1.2, "unit": "%"},
      {"measurement": "Content", "setting": "[1]; [10]", "value": 98.8, "unit": "%"},
      {"measurement": "Crystal form (XRPD)", "setting": "[1]; [10]", "value": "Crystal form A"},
      {"measurement": "Total impurities", "setting": "[1]; [10]", "value": 1.2, "unit": "%"},
      {"measurement": "Content", "setting": "[1]; [11]", "value": 98.0, "unit": "%"},
      {"measurement": "Crystal form (XRPD)", "setting": "[1]; [11]", "value": "Crystal form A"},
      {"measurement": "Total impurities", "setting": "[1]; [11]", "value": 1.3, "unit": "%"},
      {"measurement": "Content", "setting": "[1]; [12]", "value": 97.0, "unit": "%"},
      {"measurement": "Crystal form (XRPD)", "setting": "[1]; [12]", "value": "Crystal form A"},
      {"measurement": "Total impurities", "setting": "[1]; [12]", "value": 1.3, "unit": "%"},
      {"measurement": "Content", "setting": "[1]; [13]", "value": 98.5, "unit": "%"},
      {"measurement": "Crystal form (XRPD)", "setting": "[1]; [13]", "value": "Crystal form A"},
      {"measurement": "Total impurities", "setting": "[1]; [13]", "value": 1.1, "unit": "%"},
      {"measurement": "Content", "setting": "[1]; [14]", "value": 98.2, "unit": "%"},
      {"measurement": "Crystal form (XRPD)", "setting": "[1]; [14]", "value": "Crystal form A"},
      {"measurement": "Total impurities", "setting": "[1]; [14]", "value": 1.2, "unit": "%"},
      {"measurement": "Content", "setting": "[1]; [15]", "value": 98.4, "unit": "%"},
      {"measurement": "Crystal form (XRPD)", "setting": "[1]; [15]", "value": "Crystal form A"},
      {"measurement": "Total impurities", "setting": "[1]; [15]", "value": 1.2, "unit": "%"},
      {"measurement": "Content", "setting": "[1]; [16]", "value": 97.7, "unit": "%"},
      {"measurement": "Crystal form (XRPD)", "setting": "[1]; [16]", "value": "Crystal form A"},
      {"measurement": "Total impurities", "setting": "[1]; [16]", "value": 1.1, "unit": "%"},
      {"measurement": "Content", "setting": "[1]; [17]", "value": 97.9, "unit": "%"},
      {"measurement": "Crystal form (XRPD)", "setting": "[1]; [17]", "value": "Crystal form A"},
      {"measurement": "Total impurities", "setting": "[1]; [17]", "value": 1.2, "unit": "%"},
      {"measurement": "Content", "setting": "[1]; [18]", "value": 98.3, "unit": "%"},
      {"measurement": "Crystal form (XRPD)", "setting": "[1]; [18]", "value": "Crystal form A"},
      {"measurement": "Total impurities", "setting": "[1]; [18]", "value": 1.2, "unit": "%"},
      {"measurement": "Content", "setting": "[1]; [19]", "value": 98.6, "unit": "%"},
      {"measurement": "Crystal form (XRPD)", "setting": "[1]; [19]", "value": "Crystal form A"},
      {"measurement": "Total impurities", "setting": "[1]; [19]", "value": 1.2, "unit": "%"},
      {"measurement": "Content", "setting": "[1]; [20]", "value": 97.6, "unit": "%"},
      {"measurement": "Crystal form (XRPD)", "setting": "[1]; [20]", "value": "Crystal form A"},
      {"measurement": "Total impurities", "setting": "[1]; [20]", "value": 1.2, "unit": "%"},
      {"measurement": "IC50", "setting": "[2]", "value": 117, "unit": "nM"},
      {"measurement": "IC50", "setting": "[3]", "value": 167, "unit": "nM"}
    ]}
  ]
}
